A short description of data set [1]: Solubility in 0.1 M phosphate buffer at pH 7. The data set is classed as physicochemical. The settings on record: 0.1 M phosphate buffer at pH 7, 10 mg/mL final peptide concentration, shaking 2 hours at room temperature, peptides as TFA-salts; measured sample pH 6.5-7.0.
In a further data set the target is T1, hGLP1R (Homo sapiens, UniProt P43220).
T1 construct: expressed in transfected cells; host or cells: HEK-293 CRE-luciferase reporter cells
The experiment in a line: hGLP1R CreLuc assay in 0.5% and 100% plasma (HEK-293 CRE-luciferase reporter cells). To be noted: 0.5% human plasma, HEK-293 reporter cells, read-out: hGLP1R 0.5% hP. The data set is classed as cell-based. The text has this:
CHO and HEK-293 recombinant cell lines express a luciferase reporter gene under control of the CAMP responsive element (CRE). As a second recombinant protein the GLP-1 and NPY2 receptors were expressed in the reporter gene HEK cells, and the GIP receptor was expressed in the reporter gene CHO cells, respectively. Stimulation of these recombinant cells with an agonist leads to an increase of intracellular CAMP levels. In the presence of CAMP, the transcription factor CRE binding protein (CREB) binds to the CRE and to the CREB binding protein (CBP), which leads to transcription of the luciferase reporter gene. Peptides upon serial-dilution in 100% DMSO were transferred into 384-well assay plates with 5 μl pre-dispensed assay buffer (1×HBSS, 20 mM HEPES, pH7.4 supplemented with 0.5% human plasma) using acoustic dispensing on a Labcyte ECHO. Cryo-preserved transgenic reporter gene cells were thawed in assay buffer. 20 μl (10.000 cells/well) were added to the plate with the peptides and incubated for 4 hours at 37° C. in a humidified incubator. Following incubation, assay plates are equilibrated to room temperature, followed by addition of 25 μl of Bright-Glo™ Luciferase reagent, incubation at room temperature for 10 minutes and analysis of luminescence (Envision Reader). […] EC50 values were calculated by non-linear regression using sigmoid concentration-response with variable slope.
The same assays were run in the presence of 100% plasma with no additional buffer constituents.
Background: Reporter assays use an easily measured gene product as a stand-in for the process of interest.

The target of another data set is T2, hGIPR (Homo sapiens, UniProt P48546).
T2 construct: expressed in transfected cells; host or cells: CHO CRE-luciferase reporter cells
T2 sequence (P48546 22-466): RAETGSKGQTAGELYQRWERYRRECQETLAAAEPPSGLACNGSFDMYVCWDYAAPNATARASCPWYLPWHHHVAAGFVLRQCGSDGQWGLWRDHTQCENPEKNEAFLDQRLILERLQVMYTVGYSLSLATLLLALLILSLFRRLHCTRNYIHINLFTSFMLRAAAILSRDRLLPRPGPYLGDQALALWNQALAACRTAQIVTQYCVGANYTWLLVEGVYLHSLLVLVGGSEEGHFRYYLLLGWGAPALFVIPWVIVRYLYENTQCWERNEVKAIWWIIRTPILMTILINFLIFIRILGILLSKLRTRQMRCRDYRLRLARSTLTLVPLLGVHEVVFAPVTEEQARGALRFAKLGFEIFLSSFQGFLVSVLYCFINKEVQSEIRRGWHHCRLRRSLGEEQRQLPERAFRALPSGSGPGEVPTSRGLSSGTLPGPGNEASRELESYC
Nature of the data set: hGIPR CreLuc assay in 0.5% and 100% plasma (CHO CRE-luciferase reporter cells). To be noted: 0.5% human plasma, read-out: hGIPR 0.5% hP. It counts as cell-based.

T1 sequence (P43220 24-463): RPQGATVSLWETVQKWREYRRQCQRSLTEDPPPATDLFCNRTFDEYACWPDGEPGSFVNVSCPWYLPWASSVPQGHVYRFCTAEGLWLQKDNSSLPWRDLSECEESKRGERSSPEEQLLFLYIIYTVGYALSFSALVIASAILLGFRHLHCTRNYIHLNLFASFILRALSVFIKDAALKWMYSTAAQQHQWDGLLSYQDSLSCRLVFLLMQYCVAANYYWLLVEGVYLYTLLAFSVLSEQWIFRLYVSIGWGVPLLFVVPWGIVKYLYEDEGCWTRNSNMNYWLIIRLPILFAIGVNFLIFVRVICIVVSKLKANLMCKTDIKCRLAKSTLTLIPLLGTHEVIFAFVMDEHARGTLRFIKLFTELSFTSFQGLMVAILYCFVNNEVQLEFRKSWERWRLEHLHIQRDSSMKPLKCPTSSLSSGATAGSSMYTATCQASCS

Consider `CC[C@H](C)[C@H](NC(=O)[C@H](CC(C)C)NC(=O)[C@H](Cc1c[nH]cn1)NC(=O)[C@H](CCCNC(=N)N)NC(=O)[C@@H](NC(=O)[C@H](Cc1ccccc1)NC(=O)[C@H](C)NC(=O)C(C)(C)NC(=O)[C@H](CCC(N)=O)NC(=O)[C@H](C)NC(=O)[C@H](CCC(N)=O)NC(=O)[C@H](CCCCN)NC(=O)[C@H](CCC(=O)O)NC(=O)[C@H](CC(C)C)NC(=O)C(C)(C)NC(=O)[C@@H](NC(=O)[C@H](CO)NC(=O)[C@H](Cc1ccc(O)cc1)NC(=O)[C@H](CC(=O)O)NC(=O)[C@H](CO)NC(=O)[C@@H](NC(=O)[C@H](Cc1ccccc1)NC(=O)[C@@H](NC(=O)CNC(=O)[C@H](CCC(=O)O)NC(=O)C(C)(C)NC(=O)[C@@H](N)Cc1ccc(O)cc1)[C@@H](C)O)[C@@H](C)O)[C@@H](C)CC)C(C)C)C(=O)N[C@@H](CC(N)=O)C(=O)N[C@@H](CCCCNC(=O)COCCOCCNC(=O)CC[C@H](NC(=O)CC[C@H](NC(=O)CC[C@H](NC(=O)CC[C@H](NC(=O)CC[C@H](NC(=O)CCCCCCCCCCCCCCCCC(=O)O)C(=O)O)C(=O)O)C(=O)O)C(=O)O)C(=O)O)C(=O)N[C@@H](CC(C)C)C(=O)N[C@H](C(=O)N[C@@H](CCCNC(=N)N)C(=O)N[C@@H](CCC(N)=O)C(=O)N[C@@H](CCCNC(=N)N)C(=O)N[C@@H](Cc1ccc(O)cc1)C(N)=O)[C@@H](C)O` [Compound 7, Y-Aib-E-G-T-F-T-S-D-Y-S-I-Aib-L-E-K-Q-A-Q-Aib-A-F-V-R-H-L-I-N-K(1,3)-L-T-R-Q-R-Y-NH2.C18DA-gGlu-gGlu-gGlu-gGlu-gGlu-OEG(1,2)], for which the solubility at 2 h in data set [1] was 4.5 mg/mL. The figures for the EC50 on hGLP1R and at hGIPR were 0.7 nM and 0.4 nM, respectively.
On the same counts, the results for `CC[C@H](C)[C@H](NC(=O)[C@H](CC(C)C)NC(=O)[C@H](Cc1c[nH]cn1)NC(=O)[C@H](CCCNC(=N)N)NC(=O)[C@@H](NC(=O)[C@H](Cc1ccccc1)NC(=O)[C@H](C)NC(=O)C(C)(C)NC(=O)[C@H](CCC(N)=O)NC(=O)[C@H](C)NC(=O)[C@H](CCC(N)=O)NC(=O)[C@H](CCCCN)NC(=O)[C@H](CCC(=O)O)NC(=O)[C@H](CC(C)C)NC(=O)C(C)(C)NC(=O)[C@@H](NC(=O)[C@H](CO)NC(=O)[C@H](Cc1ccc(O)cc1)NC(=O)[C@H](CC(=O)O)NC(=O)[C@H](CO)NC(=O)[C@@H](NC(=O)[C@H](Cc1ccccc1)NC(=O)[C@@H](NC(=O)CNC(=O)[C@H](CCC(=O)O)NC(=O)C(C)(C)NC(=O)[C@@H](N)Cc1ccc(O)cc1)[C@@H](C)O)[C@@H](C)O)[C@@H](C)CC)C(C)C)C(=O)N[C@@H](CC(N)=O)C(=O)N[C@@H](CCCCNC(=O)CC[C@H](NC(=O)CC[C@H](NC(=O)CC[C@H](NC(=O)CC[C@H](NC(=O)CC[C@H](NC(=O)CC[C@H](NC(=O)CCCCCCCCCCCCCCCCC(=O)O)C(=O)O)C(=O)O)C(=O)O)C(=O)O)C(=O)O)C(=O)O)C(=O)N[C@@H](CC(C)C)C(=O)N[C@H](C(=O)N[C@@H](CCCNC(=N)N)C(=O)N[C@@H](CCC(N)=O)C(=O)N[C@@H](CCCNC(=N)N)C(=O)N[C@@H](Cc1ccc(O)cc1)C(N)=O)[C@@H](C)O` [Compound 12, Y-Aib-E-G-T-F-T-S-D-Y-S-I-Aib-L-E-K-Q-A-Q-Aib-A-F-V-R-H-L-I-N-K(1,3)-L-T-R-Q-R-Y-NH2.C18DA-gGlu-gGlu-gGlu-gGlu-gGlu-gGlu(1,2)] are 5 mg/mL, 1.8 nM and 0.8 nM.
In the case of `CC[C@H](C)[C@H](NC(=O)[C@H](CC(C)C)NC(=O)[C@H](Cc1c[nH]cn1)NC(=O)[C@H](CCCNC(=N)N)NC(=O)[C@@H](NC(=O)[C@H](Cc1ccccc1)NC(=O)[C@H](C)NC(=O)C(C)(C)NC(=O)[C@H](CCC(N)=O)NC(=O)[C@H](C)NC(=O)[C@H](CCC(N)=O)NC(=O)[C@H](CCCCN)NC(=O)[C@H](CCC(=O)O)NC(=O)[C@H](CC(C)C)NC(=O)C(C)(C)NC(=O)[C@@H](NC(=O)[C@H](CO)NC(=O)[C@H](Cc1ccc(O)cc1)NC(=O)[C@H](CC(=O)O)NC(=O)[C@H](CO)NC(=O)[C@@H](NC(=O)[C@H](Cc1ccccc1)NC(=O)[C@@H](NC(=O)CNC(=O)[C@H](CCC(=O)O)NC(=O)C(C)(C)NC(=O)[C@@H](N)Cc1ccc(O)cc1)[C@@H](C)O)[C@@H](C)O)[C@@H](C)CC)C(C)C)C(=O)N[C@@H](CC(N)=O)C(=O)N[C@@H](CCCCNC(=O)CCCCCNC(=O)CC[C@H](NC(=O)CC[C@H](NC(=O)CC[C@H](NC(=O)CC[C@H](NC(=O)CC[C@H](NC(=O)CCCCCCCCCCCCCCCCC(=O)O)C(=O)O)C(=O)O)C(=O)O)C(=O)O)C(=O)O)C(=O)NC(C)(C)C(=O)N[C@H](C(=O)N[C@@H](CCCNC(=N)N)C(=O)N[C@@H](CCC(N)=O)C(=O)N[C@@H](CCCNC(=N)N)C(=O)N[C@@H](Cc1ccc(O)cc1)C(N)=O)[C@@H](C)O` [Compound 13, Y-Aib-E-G-T-F-T-S-D-Y-S-I-Aib-L-E-K-Q-A-Q-Aib-A-F-V-R-H-L-I-N-K(1,3)-Aib-T-R-Q-R-Y-NH2.C18DA-gGlu-gGlu-gGlu-gGlu-gGlu-AHX(1,2)], the solubility at 2 h in data set [1] was found to be 4.3 mg/mL. Also, the EC50 worked out at 0.4 nM on hGLP1R and 0.1 nM on hGIPR.
For `CC[C@H](C)[C@H](NC(=O)[C@H](CC(C)C)NC(=O)[C@H](Cc1c[nH]cn1)NC(=O)[C@H](CCCNC(=N)N)NC(=O)[C@@H](NC(=O)[C@H](Cc1ccccc1)NC(=O)[C@H](C)NC(=O)C(C)(C)NC(=O)[C@H](CCC(N)=O)NC(=O)[C@H](C)NC(=O)[C@H](CCC(N)=O)NC(=O)[C@H](CCC(N)=O)NC(=O)[C@H](CCC(=O)O)NC(=O)[C@H](CC(C)C)NC(=O)C(C)(C)NC(=O)[C@@H](NC(=O)[C@H](CO)NC(=O)[C@H](Cc1ccc(O)cc1)NC(=O)[C@H](CC(=O)O)NC(=O)[C@H](CO)NC(=O)[C@@H](NC(=O)[C@H](Cc1ccccc1)NC(=O)[C@@H](NC(=O)CNC(=O)[C@H](CCC(=O)O)NC(=O)C(C)(C)NC(=O)[C@@H](N)Cc1ccc(O)cc1)[C@@H](C)O)[C@@H](C)O)[C@@H](C)CC)C(C)C)C(=O)N[C@@H](CC(N)=O)C(=O)N[C@@H](CCCCNC(=O)[C@@H](N)CCCCNC(=O)CC[C@H](NC(=O)CC[C@H](NC(=O)CC[C@H](NC(=O)CC[C@H](NC(=O)CC[C@H](NC(=O)CC[C@H](NC(=O)CCCCCCCCCCCCCCCCC(=O)O)C(=O)O)C(=O)O)C(=O)O)C(=O)O)C(=O)O)C(=O)O)C(=O)NC(C)(C)C(=O)N[C@H](C(=O)N[C@@H](CCCNC(=N)N)C(=O)N[C@@H](CCC(N)=O)C(=O)N[C@@H](CCCNC(=N)N)C(=O)N[C@@H](Cc1ccc(O)cc1)C(N)=O)[C@@H](C)O` [Compound 23, Y-Aib-E-G-T-F-T-S-D-Y-S-I-Aib-L-E-Q-Q-A-Q-Aib-A-F-V-R-H-L-I-N-K(1,3)-Aib-T-R-Q-R-Y-NH2.C18DA-gGlu-gGlu-gGlu-gGlu-gGlu-gGlu-eLys(1,2)] the same measures were 9.4 mg/mL, 0.5 nM and 0.2 nM.

The solubility is the dissolved amount per volume that the medium holds.
